US6960614B2, “Oxygenated esters of 4-lodo phenylamino benzhydroxamic acids” (Warner-Lambert Company, priority 2000, dated 2005)
pIC50: −log10 of the molar value.

What was measured:
MEK = assay: Cellular Assay for Measuring MEK Inhibition (inhibition of ERK phosphorylation in C26 cells, Western blot); assay type: cell-based, murine; settings: inhibition of ERK phosphorylation in murine colon 26 (C26) carcinoma cells; determined graphically from dose response curve
How it was run: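 Read-out is phospho-ERK1/2 by Western blot, normalized against total ERK1/2 after stripping and re-probing. Murine C26 colon carcinoma cells in exponential growth were exposed to a range of compound concentrations at 37° C before lysis.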

| Structure (SMILES) | pIC50 (MEK) | melting point |
| --- | --- | --- |
| O=C(NOC[C@@H]1C[C@H]1CO)c1ccc(F)c(F)c1Nc1ccc(I)cc1F (relative stereo) [Example 74, 3,4-Difluoro-2-(2-fluoro-4-iodo-phenylamino)-N-[trans-(2-hydroxymethyl-cyclopropylmethoxy)]-benzamide] | 7.74 | 128.5 to 128.7 °C |
| O=C(NOC[C@@H]1C[C@H]1CO)c1cc(Cl)c(F)c(F)c1Nc1ccc(I)cc1F (relative stereo) [Example 75, 5-Chloro-3,4-difluoro-2-(2-fluoro-4-iodo-phenylamino)-N-[trans-(2-hydroxymethyl-cyclopropylmethoxy)]-benzamide] | 7.38 | 152.5 to 153.1 °C |
| Cc1cc(I)ccc1Nc1c(C(=O)NOCCO)ccc(F)c1F [Example 2, 3,4-Difluoro-N-(2-hydroxy-ethoxy)-2-(4-iodo-2-methyl-phenylamino)-benzamide] | 8.52 | 181 to 183 °C |
| O=C(NOCCO)c1cc(Cl)c(F)c(F)c1Nc1ccc(I)cc1 [Example 7, 5-Chloro-3,4-difluoro-N-(2-hydroxy-ethoxy)-2-(4-iodo-phenylamino)-benzamide] | 8.30 | 174 to 176 °C |
| O=C(NOCCO)c1ccc(F)cc1Nc1ccc(I)cc1F [Example 8, 4-Fluoro-2-(2-fluoro-4-iodo-phenylamino)-N-(2-hydroxy-ethoxy)-benzamide] | 9.52 | 117 to 119 °C |
| Cc1cc(I)ccc1Nc1cc(F)c(F)cc1C(=O)NOCCO [Example 12, 4,5-Difluoro-N-(2-hydroxy-ethoxy)-2-(4-iodo-2-methyl-phenylamino)-benzamide] | 7.66 | 151.2 to 152.5 °C |
| Cc1cc(I)ccc1Nc1cc(F)c(Br)cc1C(=O)NOCCO [Example 16, 5-Bromo-4-fluoro-N-(2-hydroxy-ethoxy)-2-(4-iodo-2-methyl-phenylamino)-benzamide] | 7.70 | 154.4 to 156.4 °C |
| O=C(NOCCO)c1cc(F)c(F)cc1Nc1ccc(I)cc1F [Example 18, 4,5-Difluoro-2-(2-fluoro-4-iodo-phenylamino)-N-(2-hydroxy-ethoxy)-benzamide] |  | 189.6 to 190.6 °C |
| O=C(NOCCO)c1cc(Br)c(F)cc1Nc1ccc(I)cc1F [Example 19] | 9.00 | 173 to 175 °C |
| C=COCCONC(=O)c1ccc(F)c(F)c1Nc1ccc(I)cc1Cl [Example 56, 2-(2-Chloro-4-iodo-phenylamino)-3,4-difluoro-N-(2-vinyloxy-ethoxy)-benzamide] |  | 141.5 to 143 °C |
| O=C(NOCC(O)CO)c1cc(Br)c(F)c(F)c1Nc1ccccc1F (centres unmarked) [Example 84, 5-Bromo-N-(2,3-dihydroxy-propoxy)-3,4-difluoro-2-(2-fluoro-phenylamino)-benzamide] |  | 143.5 to 144.5 °C |
| Cc1cc(I)ccc1Nc1c(C(=O)NOCCNc2ccccc2)cc(F)c(F)c1F [Example 230, 3,4,5-Trifluoro-2-(4-iodo-2-methyl-phenylamino)-N-(2-phenylamino-ethoxy)-benzamide] | 7.29 |  |
| Cc1cc(I)ccc1Nc1c(C(=O)NOCCNc2ccccc2)cc(Br)c(F)c1F [Example 231, 5-Bromo-3,4-difluoro-2-(4-iodo-2-methyl-phenylamino)-N-(2-phenylamino-ethoxy)-benzamide] | 7.17 |  |
| O=C(NOCCNc1ccccc1)c1ccc(F)c(F)c1Nc1ccc(I)cc1Cl [Example 232, 2-(2-Chloro-4-iodo-phenylamino)-3,4-difluoro-N-(2-phenylamino-ethoxy)-benzamide] | 7.66 |  |
| O=C(NOCCNc1ccccc1)c1cc(F)c(F)c(F)c1Nc1ccc(I)cc1Cl [Example 233, 2-(2-Chloro-4-iodo-phenylamino)-3,4,5-trifluoro-N-(2-phenylamino-ethoxy)-benzamide] | 7.48 |  |
| Cc1cc(I)ccc1Nc1c(C(=O)NOCCNc2ccccc2)ccc(F)c1F [Example 234, 3,4-Difluoro-2-(4-iodo-2-methyl-phenylamino)-N-(2-phenylamino-ethoxy)-benzamide] | 7.27 |  |

Results, then the compound that gave them:

| pIC50 (MEK) | melting point | Structure (SMILES) |
| --- | --- | --- |
| 8.10 | 205 to 207 °C (dec.) | Cc1cc(I)ccc1Nc1c(C(=O)NOCCO)cc(F)c(F)c1F [Example 1, 3,4,5-Trifluoro-N-(2-hydroxy-ethoxy)-2-(4-iodo-2-methyl-phenylamino)-benzamide] |
| 8.40 | 173 to 175 °C | O=C(NOCCO)c1ccc(F)c(F)c1Nc1ccc(I)cc1Cl [Example 3, 2-(2-Chloro-4-iodo-phenylamino)-3,4-difluoro-N-(2-hydroxy-ethoxy)-benzamide] |
| 8.30 | 183 to 184.5 °C | O=C(NOCCO)c1cc(F)c(F)c(F)c1Nc1ccc(I)cc1Cl [Example 6, 2-(2-Chloro-4-iodo-phenylamino)-3,4,5-trifluoro-N-(2-hydroxy-ethoxy)-benzamide] |
| 9.52 | 180 to 180.5 °C | O=C(NOCCO)c1cc(Cl)c(F)c(F)c1Nc1ccc(I)cc1F [Example 10, 5-Chloro-3,4-difluoro-2-(2-fluoro-4-iodo-phenylamino)-N-(2-hydroxy-ethoxy)-benzamide] |
| 8.70 | 189 to 190 °C | O=C(NOCCO)c1cc(Br)c(F)c(F)c1Nc1ccc(I)cc1F [Example 11, 5-Bromo-3,4-difluoro-2-(2-fluoro-4-iodo-phenylamino)-N-(2-hydroxy-ethoxy)-benzamide] |
| 8.70 | 208.2 to 209.6 °C | Cc1cc(I)ccc1Nc1c(C(=O)NOCCO)cc(Br)c(F)c1F [Example 13, 5-Bromo-3,4-difluoro-N-(2-hydroxy-ethoxy)-2-(4-iodo-2-methyl-phenylamino)-benzamide] |
| 8.70 | 190.2 to 200.2 °C | O=C(NOCCO)c1cc(Br)c(F)c(F)c1Nc1ccc(I)cc1Cl [Example 14, 5-Bromo-2-(2-chloro-4-iodo-phenylamino)-3,4-difluoro-N-(2-hydroxy-ethoxy)-benzamide] |
| 9.00 | 199.1 to 200.8 °C | Cc1cc(I)ccc1Nc1c(C(=O)NOCCO)cc(Cl)c(F)c1F [Example 15] |
| 8.52 | 178 to 181 °C | O=C(NOCCO)c1cc(Cl)c(F)c(F)c1Nc1ccc(I)cc1Cl [Example 20, 5-Chloro-2-(2-chloro-4-iodo-phenylamino)-3,4-difluoro-N-(2-hydroxy-ethoxy)-benzamide] |
| 8.74 | 185 to 187 °C | O=C(NOCCO)c1cc(F)c(F)c(F)c1Nc1ccc(I)cc1F [Example 21, 3,4,5-Trifluoro-2-(2-fluoro-4-iodo-phenylamino)-N-(2-hydroxy-ethoxy)-benzamide] |
|  | 120 to 121 °C | O=C(NOCCCO)c1cc(Br)c(F)c(F)c1Nc1ccc(I)cc1Cl [Example 31, 5-Bromo-2-(2-chloro-4-iodo-phenylamino)-3,4-difluoro-N-(3-hydroxy-propoxy)-benzamide] |
|  | 119 to 120 °C | C=COCCONC(=O)c1cc(Cl)c(F)c(F)c1Nc1ccc(I)cc1F [Example 60, 5-Chloro-3,4-difluoro-2-(2-fluoro-4-iodo-phenylamino)-N-(2-vinyloxy-ethoxy)-benzamide] |
| 7.21 |  | O=C(NOCCNc1ccccc1)c1cc(Br)c(F)c(F)c1Nc1ccc(I)cc1Cl [Example 235, 5-Bromo-2-(2-chloro-4-iodo-phenylamino)-3,4-difluoro-N-(2-phenylamino-ethoxy)-benzamide] |
